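Five concentrations, 48 hours, 96-well plates. Abbreviation: GI50, concentration required for 50% inhibition of growth. TGI marks complete inhibition of growth.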 Active and inactive are the calls of the source. No stated cut-off is given here; in the data, active means GI50 below about 0.43 µM; inactive means the rest. Where only a bound is given, the exact number is not on record here.

What all share (assay): DTP human tumour cell line panel, 48 h
The subject of assay [1] is A549 NSCLC.
For assay [2], the system named is COLO 205 colon.
Assay [3] concerns HS 578T breast.
Assay [4] has as its system NCI-H522 lung.
Assay [5] deals with OVCAR-3 ovarian.
Assay [6] concerns OVCAR-4 ovarian.
The subject of assay [7] is OVCAR-5 ovarian.
The subject of assay [8] is OVCAR-8 ovarian.

Consider `N#Cc1ccc(C2Oc3ccc(Cl)cc3C=C2[N+](=O)[O-])cc1` (centres undefined), for which the TGI (in general, the concentration at which net growth stops) in assay [1] was found to be 3.3 µM; in assay [2] it was 1.87 µM; in assay [3], 47.6 µM; in assay [4] it was 2.92 µM; in assay [5] it was 3.04 µM; in assay [6], 3.45 µM. Moreover, the total growth inhibition concentration (TGI) in assay [7] was found to be 3.98 µM.

As to `O=C(c1ccccc1)c1c(C(F)(F)F)n([O-])c2cc(F)c(F)cc2[n+]1=O`, the total growth inhibition concentration (TGI) in assay [1] is 8.34 µM; in assay [2] it was above 69.6 µM; in assay [3], 2.48 µM; in assay [4] it was above 7.96 µM; in assay [5] it was 1.16 µM; in assay [6], above 100 µM. In addition, the TGI in assay [7] came to 2.98 µM; in assay [8], 1.15 µM.

Turning to `C[C@@]12C[C@@H](c3ccccc3O1)N1Cc3ccccc3CSC1=N2`, the TGI in assay [2], in assay [3], in assay [4], in assay [5], in assay [6] and in assay [7] was above 100 µM in each case. The compound also had a TGI in assay [8] above 100 µM.

As for `CC(C)(C)OC(=O)n1c(Cl)c(C=O)c2ccccc21`, the concentration for total growth inhibition (TGI) in assay [1] was above 100 µM; in assay [2], above 100 µM; in assay [3], above 100 µM; in assay [4], above 100 µM; in assay [5], 40.8 µM; in assay [6], above 100 µM. For the same compound, the TGI was 72.3 µM in assay [7] and above 100 µM in assay [8].

Turning to `CN(/N=C/c1ccc(Cl)cc1)C1=NCCCCN1`, the TGI in assay [1], in assay [2], in assay [3], in assay [4], in assay [5] and in assay [6] was above 100 µM in each case. Besides, the TGI in assay [7] and in assay [8] was above 100 µM each time.

On to `CC(=O)N1C(Nc2cccc3nc(C)ccc23)CCN1c1ccccc1` (centres undefined), for which the TGI in assay [1], in assay [2], in assay [3], in assay [4], in assay [5] and in assay [6] was above 10 µM each time. Besides, the total growth inhibition concentration (TGI) in assay [7] and in assay [8] was above 10 µM in each case.

For the compound `O=C1CC(C(COCc2ccccc2)OCc2ccccc2)CC(=O)N1` (centres undefined), the TGI in assay [1], in assay [3], in assay [4], in assay [5], in assay [7] and in assay [8] was above 100 µM throughout.

On to `S=C(N/N=C(\C(=N/NC(=S)N1CCCCC1)c1ccccn1)c1ccccn1)N1CCCCC1`, for which the concentration for total growth inhibition (TGI) in assay [1], in assay [2], in assay [3], in assay [4], in assay [5] and in assay [7] was above 100 µM throughout. Also, the concentration for total growth inhibition (TGI) in assay [8] was above 100 µM.

`Cc1cn([C@@H]2C[C@H](CO)[C@@H]2O)c(=O)[nH]c1=O`: the concentration for total growth inhibition (TGI) in assay [1], in assay [2], in assay [3], in assay [4], in assay [5] and in assay [6] was above 100 µM throughout. Moreover, the TGI in assay [7] and in assay [8] was above 100 µM throughout.

Regarding `CC(=O)c1[nH]c(Nc2ccc(C)cc2)c(C(=S)Nc2ccccc2)c1N`, the concentration for total growth inhibition (TGI) was 30.7 µM in assay [1]; above 100 µM in assay [2]; 52.3 µM in assay [3]; 32.5 µM in assay [4]; 35.5 µM in assay [5]; 54.9 µM in assay [6]. Also, the TGI in assay [7] is above 100 µM; in assay [8], 39.4 µM.

For the compound `CCOC1NC(/N=C/c2ccc(OC)cc2)=C(C#N)C1C#N` (centres undefined), the TGI in assay [1] was above 100 µM; in assay [2], above 100 µM; in assay [3], above 100 µM; in assay [4], 47.8 µM; in assay [5], above 100 µM; in assay [6], above 100 µM. The TGI in assay [7] and in assay [8] was above 100 µM each time.

`OC(C1CCCCCCCCCC1)C(O)C1CCCCCCCCCC1` (centres undefined): the TGI in assay [1], in assay [2], in assay [3], in assay [4], in assay [5] and in assay [6] was above 100 µM throughout. For the same compound, the TGI in assay [7] and in assay [8] was above 100 µM throughout.

Take `O=C1O[C@H]2C3C4CCC(C4[C@@H]2I)[C@H]13` (some centres undefined): the total growth inhibition concentration (TGI) in assay [1], in assay [2], in assay [3], in assay [4], in assay [5] and in assay [6] was above 100 µM in each case. Besides, the total growth inhibition concentration (TGI) in assay [7] and in assay [8] was above 100 µM throughout.

As for `Cc1c2cccc-2c(OCCOC(=O)n2ccnc2)cc2c1[nH]c1ccccc12`, the concentration for total growth inhibition (TGI) is 11 µM in assay [1]; above 100 µM in assay [3]; 4.66 µM in assay [4]; 4.64 µM in assay [5]; 5.63 µM in assay [6]; 7.51 µM in assay [7]. In assay [8], this compound displayed a TGI of 5.22 µM.

Take `COc1ccc(C2C(C#N)=C(S)N(C3OC(CO)C(O)C(O)C3O)C(C)=C2C(C)=O)cc1` (centres undefined): the TGI in assay [1], in assay [2], in assay [3], in assay [4], in assay [5] and in assay [6] was above 100 µM each time. Moreover, the TGI in assay [7] and in assay [8] was above 100 µM in each case.

In the case of `CC(=O)c1ccc2c3c1O[C@H]1c4[nH]c5ccccc5c4C[C@@]4(O)[C@@H](C2)N(CC2CC2)CC[C@]314`, the concentration for total growth inhibition (TGI) came out at 21.3 µM in assay [1]; 30.8 µM in assay [2]; 15.2 µM in assay [3]; 35.3 µM in assay [4]; 23.4 µM in assay [5]; 39.9 µM in assay [6]. The TGI in assay [7] was found to be 28.1 µM; in assay [8] it was 27.8 µM.

For `Cc1ccc(N=C2SC(=NN(C)C)SC2=Nc2ccc(C)cc2)cc1`, the TGI in assay [1], in assay [2], in assay [3], in assay [4], in assay [6] and in assay [7] was above 100 µM in each case. In assay [8], this compound had a TGI above 100 µM.

Turning to `COc1cc(O)cc(O)c1C(=O)CC(Cl)(Cl)Cl`, the concentration for total growth inhibition (TGI) in assay [1], in assay [2], in assay [3], in assay [4], in assay [5] and in assay [6] was above 100 µM in each case. For the same compound, the TGI in assay [7] and in assay [8] was above 100 µM in each case.

With `Nc1ccccc1OCCCOc1ccccc1N`, the TGI in assay [1], in assay [2], in assay [3], in assay [4], in assay [5] and in assay [6] was above 100 µM throughout. Moreover, the TGI in assay [7] and in assay [8] was above 100 µM each time.

For the compound `COc1ccc(Cn2c3ccc([N+](=O)[O-])cc3c(=O)n2Cc2ccccn2)cc1`, the TGI in assay [1], in assay [2], in assay [3], in assay [4], in assay [5] and in assay [6] was above 100 µM throughout. In addition, the TGI in assay [7] and in assay [8] was above 100 µM throughout.

For `C1=CN2C[n+]3ccc4ccccc4c3N=C2c2ccccc21`, the TGI came out at 21.6 µM in assay [1]; 4.26 µM in assay [2]; 30.4 µM in assay [3]; 5.09 µM in assay [4]; 3.51 µM in assay [5]; 47 µM in assay [7]. The compound also came in with a TGI in assay [8] of 24.9 µM.

Regarding `CCn1c(=O)c2c3ccc(OC)cc3[nH]c2c2ccc(OC)cc21`, the TGI in assay [1], in assay [2], in assay [3], in assay [4], in assay [5] and in assay [6] was above 100 µM in each case. The total growth inhibition concentration (TGI) in assay [7] and in assay [8] was above 100 µM throughout.

On to `COc1cc(/C(=C2/O[C@@H]([C@H]3COC(C)(C)O3)[C@H]3OC(C)(C)O[C@@H]23)c2ccc3c(c2)OCO3)cc(OC)c1OC`, for which the GI50 (as a rule, the concentration that inhibits growth by half) in assay [1] is above 25 µM; in assay [2], above 25 µM; in assay [3], above 25 µM; in assay [4], above 25 µM; in assay [5], above 25 µM; in assay [6] it was 8.81 µM. Also, the results for the GI50 in assay [7] and in assay [8] were 4.85 µM and above 25 µM, respectively. Moreover, the TGI in assay [1], in assay [2], in assay [3], in assay [4], in assay [5] and in assay [6] was above 25 µM in each case. Further, the total growth inhibition concentration (TGI) in assay [7] and in assay [8] was above 25 µM in each case.

On to `COc1cc(-c2nc3cc(Cl)c(Cl)cc3[nH]2)ccc1OCC(=O)N=Nc1c(O)[nH]c2ccc(Cl)cc12`, for which the 50% growth inhibitory concentration (GI50) in assay [2] is 0.344 µM; in assay [3], 1.04 µM; in assay [4], 0.386 µM; in assay [5] it was 0.446 µM; in assay [6] it was 0.403 µM. Also, the total growth inhibition concentration (TGI) in assay [2] is 1.22 µM; in assay [3], 3.71 µM; in assay [4], 2.08 µM; in assay [5], 1.57 µM; in assay [6] it was above 100 µM.

With `CCOC(=O)C(NC(=O)CC)(Nc1ccc(S(=O)(=O)Nc2ccc(OC)nn2)cc1)C(F)(F)F` (centres undefined), the TGI in assay [1], in assay [2], in assay [3], in assay [4], in assay [5] and in assay [6] was above 100 µM in each case. Further, the TGI in assay [7] and in assay [8] was above 100 µM throughout.

With `CCCCOc1ccc2c(c1)CC[C@@H]1[C@@H]2CC[C@]2(C)C(=O)N(CCCC)C(=O)C[C@@H]12`, the TGI in assay [2], in assay [3], in assay [4], in assay [5], in assay [7] and in assay [8] was above 100 µM in each case.

For `O=c1c2cc(I)ccc2nc(SCc2nnco2)n1Cc1ccccc1`, the concentration for total growth inhibition (TGI) in assay [1], in assay [2], in assay [3], in assay [4], in assay [5] and in assay [6] was above 100 µM in each case. For the same compound, the TGI in assay [7] and in assay [8] was above 100 µM throughout.

As to `O=C1c2cc3c(cc2CC1Cc1ccc2c(c1)CCC2)CCC3` (centres undefined), the TGI was above 100 µM in assay [1]; 52.2 µM in assay [2]; above 100 µM in assay [3]; above 100 µM in assay [4]; above 100 µM in assay [5]; above 100 µM in assay [6]. For the same compound, the concentration for total growth inhibition (TGI) in assay [7] and in assay [8] was above 100 µM in each case.

For the compound `O=P(O)(O)CN1CCNCCN(CP(=O)(O)O)CCN(CP(=O)(O)O)CCNCC1`, the result in assay [3], in assay [4], in assay [6] and in assay [7] was inactive.

Regarding `O=C1CCCCN1C(=O)c1ccc([N+](=O)[O-])cc1`, the concentration for total growth inhibition (TGI) in assay [1], in assay [3], in assay [4], in assay [5], in assay [6] and in assay [7] was above 100 µM in each case. In assay [8], the TGI was above 100 µM.

`O=C(CSCC(=O)N/N=C\c1ccccc1F)N/N=C\c1ccccc1F`: the total growth inhibition concentration (TGI) in assay [1], in assay [2], in assay [3], in assay [4], in assay [5] and in assay [6] was above 100 µM throughout. This compound also came in with a concentration for total growth inhibition (TGI) in assay [8] above 100 µM.

Take `C=CCOCn1ccc(N)nc1=O`: the total growth inhibition concentration (TGI) in assay [1], in assay [2], in assay [3], in assay [4] and in assay [8] was above 100 µM throughout.

Take `CC(=O)OCC1OC(n2c(N)c(C#N)c(-c3cccc(Cl)c3)c(C#N)c2=S)C(OC(C)=O)C(OC(C)=O)C1OC(C)=O` (centres undefined): the TGI is above 100 µM in assay [1]; 29.7 µM in assay [2]; 91.5 µM in assay [3]; 58 µM in assay [5]; above 100 µM in assay [6]; above 100 µM in assay [7]. In addition, the concentration for total growth inhibition (TGI) in assay [8] worked out at 39.9 µM.

(Values after PubChem BioAssay (NCI).)
